Test results reported in US10568879B2 (GALAPAGOS NV, priority 2015, dated 2020).

Target: T1, GPR84 (Homo sapiens, UniProt Q9NQS5)
T1 construct: expressed in transfected cells
Assay: GPR84 [35S]GTPγS binding assay
Format: biochemical
Details: 3,3′-diindolylmethane at EC80; membranes from stable cell line over expressing GPR84
Description: The following assay can be used for determination of GPR84 activation. The [^35S]GTPγS binding assay measures the level of G protein activation following agonist occupation of a GPCR, by determining the binding of the non-hydrolysable analog [^35S]GTPγS to Gα subunits.
The assay is performed in a 96-well plate where the following reagents are added. First 50 μL compound is added into the assay plate, followed by addition of 20 μL 3,3′-diindolylmethane at EC80 concentration (concentration which gives 80% of the activity of GPR84). Then, 30 μL of a mixture consisting of membranes-GTPγS-SpA beads is added [mixture consists of 20 μg/well membranes derived from stable cell line over expressing GPR84 (membranes are pre-incubated with 0.1 μM GDP for 15 min at 4° C.), 0.1 nM [^35S]GTPγS (Perkin Elmer, NEG030) and 0.5 mg/well PVT-WGA SpA beads (Perkin Elmer, RPNQ0001)]. All components are diluted in assay buffer containing 20 mM Tris pH 7.5; 5 mM MgCl2; 250 mM NaCl; 0.05% BSA; 75 μg/mL saponin. After an incubation of 90 min at room temperature, 20 μL CsCl2 0.8 M (MP Biomedicals, 02150589) is added, followed by centrifugation at 2000 rpm during 20 min. Plates are read on a topcount reader (perkin elmer) immediately after centrifugation (readout time, 1 min/well).

T1 sequence (Q9NQS5 whole entry): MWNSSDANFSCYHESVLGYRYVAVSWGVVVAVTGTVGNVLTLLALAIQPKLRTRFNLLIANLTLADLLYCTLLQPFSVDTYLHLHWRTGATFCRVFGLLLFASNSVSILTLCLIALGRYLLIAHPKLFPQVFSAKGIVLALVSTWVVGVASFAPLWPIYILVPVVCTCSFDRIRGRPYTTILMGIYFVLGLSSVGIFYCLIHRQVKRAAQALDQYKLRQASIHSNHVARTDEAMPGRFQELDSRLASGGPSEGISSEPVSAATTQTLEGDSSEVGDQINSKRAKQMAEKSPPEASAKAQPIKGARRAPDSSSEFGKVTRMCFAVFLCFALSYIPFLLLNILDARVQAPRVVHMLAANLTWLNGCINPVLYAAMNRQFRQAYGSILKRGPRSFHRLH

IC50 | Structure (SMILES)
100 to 500 nM | Cc1c2n(c(OC[C@@H]3COCCO3)cc1=O)CCc1cc(N(C)C(=O)C3CC3)ccc1-2 [Compound 73, N-[4-[[(2S)-1,4-dioxan-2-yl]methoxy]-1-methyl-2-oxo-6,7-dihydrobenzo[a]quinolizin-9-yl]-N-methyl-cyclopropanecarboxamide]
0.01 to 100 nM | Cc1c2n(c(OC[C@@H]3COCCO3)cc1=O)CCc1cc(C3=CCN(C(=O)OC(C)(C)C)CC3)ccc1-2 [Compound 74, tert-butyl 4-[4-[[(2S)-1,4-dioxan-2-yl]methoxy]-1-methyl-2-oxo-6,7-dihydrobenzo[a]qunolizin-9-yl]-3,6-dihydro-2H-pyridine-1-carboxylate]
0.01 to 100 nM | Cc1c2n(c(OC[C@@H]3COCCO3)cc1=O)CCc1cc(C3CCN(C(=O)OC(C)(C)C)CC3)ccc1-2 [Compound 75, tert-butyl 4-[4-[[(2S)-1,4-dioxan-2-yl]methoxy]-1-methyl-2-oxo-6,7-dihydrobenzo[a]quinolizin-9-yl]piperidine-1-carboxylate]
> 1000 nM | Cc1c2n(c(OC[C@@H]3COCCO3)cc1=O)CCc1cc(C(=O)NC3CC3)ccc1-2 [Compound 84, N-cyclopropyl-4-[[(2S)-1,4-dioxan-2-yl]methoxy]-1-methyl-2-oxo-6,7-dihydrobenzo[a]quinolizine-9-carboxamide]
100 to 500 nM | Cc1c2n(c(OC[C@@H]3COCCO3)cc1=O)CCc1cc(O)ccc1-2 [Compound 85, 4-[[(2S)-1,4-dioxan-2-yl]methoxy]-9-hydroxy-1-methyl-6,7-dihydrobenzo[a]quinolizin-2-one]
500 to 1000 nM | Cc1c2n(c(OC[C@@H]3COCCO3)cc1=O)CCc1cc(N3CC4(COC4)C3)ccc1-2 [Compound 87, 4-[[(2S)-1,4-dioxan-2-yl]methoxy]-1-methyl-9-(6-oxa-2-azaspiro[3.3]heptan-2-yl)-6,7-dihydrobenzo[a]quinolizin-2-one]
> 1000 nM | Cc1c2n(c(OC[C@@H]3COCCO3)cc1=O)CCc1cc(C(=O)N(C)C3CC3)ccc1-2 [Compound 88, N-cyclopropyl-4-[[(2)S-1,4-dioxan-2-yl]methoxy]-N,1-dimethyl-2-oxo-6,7-dihydrobenzo[a]quinolizine-9-carboxamide]
0.01 to 100 nM | COc1ccc2c(c1)CCn1c(OC[C@@H]3COCCO3)cc(=O)c(C)c1-2 [Compound 89, 4-[[(2S)-1,4-dioxan-2-yl]methoxy]-9-methoxy-1-methyl-6,7-dihydrobenzo[a]quinolizin-2-one]
100 to 500 nM | Cc1c2n(c(OC[C@@H]3COCCO3)cc1=O)CCc1cc(N3CC(C(C)(C)O)C3)ccc1-2 [Compound 92, 4-[[(2S)-1,4-dioxan-2-yl]methoxy]-9-[3-(1-hydroxy-1-methyl-ethyl)azetidin-1-yl]-1-methyl-6,7-dihydrobenzo[a]quinolizin-2-one]
500 to 1000 nM | Cc1c2n(c(OC[C@@H]3COCCO3)cc1=O)CCc1cc(N3CC(S(C)(=O)=O)C3)ccc1-2 [Compound 94, 4-[[(2S)-1,4-dioxan-2-yl]methoxy]-1-methyl-9-(3-methylsulfonylazetidin-1-yl)-6,7-dihydrobenzo[a]quinolizin-2-one]
0.01 to 100 nM | Cc1c2n(c(OC[C@@H]3COCCO3)cc1=O)CCc1cc(N3CC(C)(C)C3)ccc1-2 [Compound 96, 9-(3,3-dimethylazetidin-1-yl)-4-[[(2S)-1,4-dioxan-2-yl]methoxy]-1-methyl-6,7-dihydrobenzo[a]quinolizin-2-one]
100 to 500 nM | COC(=O)C1CN(c2ccc3c(c2)CCn2c(OC[C@@H]4COCCO4)cc(=O)c(C)c2-3)C1 [Compound 97]
100 to 500 nM | Cc1c2n(c(OC[C@@H]3COCCO3)cc1=O)CCc1cc(-c3cccnc3)ccc1-2 [Compound 98, 4-[[(2S)-1,4-dioxan-2-yl]methoxy]-1-methyl-9-(3-pyridyl)-6,7-dihydrobenzo[a]quinolizin-2-one]
0.01 to 100 nM | Cc1c2n(c(OC[C@@H]3COCCO3)cc1=O)CCc1cc(-c3cccc(F)c3)ccc1-2 [Compound 99, 4-[[(2S)-1,4-dioxan-2-yl]methoxy]-9-(3-fluorophenyl)-1-methyl-6,7-dihydrobenzo[a]quinolizin-2-one]
0.01 to 100 nM | Cc1c2n(c(OC[C@@H]3COCCO3)cc1=O)CCc1cc(-c3ccncc3)ccc1-2 [Compound 100, 4-[[(2S)-1,4-dioxan-2-yl]methoxy]-1-methyl-9-(4-pyridyl)-6,7-dihydrobenzo[a]quinolizin-2-one]
0.01 to 100 nM | Cc1c2n(c(OC[C@@H]3COCCO3)cc1=O)CCc1cc(-c3ccccn3)ccc1-2 [Compound 101, 4-[[(2S)-1,4-dioxan-2-yl]methoxy]-1-methyl-9-(2-pyridyl)-6,7-dihydrobenzo[a]quinolizin-2-one]

IC50 | Structure (SMILES)
0.01 to 100 nM | Cc1cccnc1-c1ccc2c(c1)CCn1c(OC[C@@H]3COCCO3)cc(=O)c(C)c1-2 [Compound 102, 4-[[(2S)-1,4-dioxan-2-yl]methoxy]-1-methyl-9-(3-methyl-2-pyridyl)-6,7-dihydrobenzo[a]quinolizin-2-one]
0.01 to 100 nM | Cc1ccnc(-c2ccc3c(c2)CCn2c(OC[C@@H]4COCCO4)cc(=O)c(C)c2-3)c1 [Compound 103, 4-[[(2S)-1,4-dioxan-2-yl]methoxy]-1-methyl-9-(4-methyl-2-pyridyl)-6,7-dihydrobenzo[a]quinolizin-2-one]
0.01 to 100 nM | Cc1c2n(c(OC[C@@H]3COCCO3)cc1=O)CCc1cc(OC3CN(C(=O)OC(C)(C)C)C3)ccc1-2 [Compound 104, tert-butyl 3-[[4-[[(2S)-1,4-dioxan-2-yl]methoxy]-1-methyl-2-oxo-6,7-dihydrobenzo[a]quinolizin-9-yl]oxy]azetidine-1-carboxylate]
0.01 to 100 nM | [2H]C(Oc1ccc2c(c1)CCn1c(OC[C@@H]3COCCO3)c([2H])c(=O)c(C)c1-2)=C(F)F [Compound 105, 3-deuterio-9-(1-deuterio-2,2-difluoro-vinyloxy)-4-[[(2S)-1,4-dioxan-2-yl]methoxy]-1-methyl-6,7-dihydrobenzo[a]quinolizin-2-one]
0.01 to 100 nM | [2H]C([2H])(Oc1ccc2c(c1)CCn1c(OC[C@@H]3COCCO3)cc(=O)c(C)c1-2)C(F)(F)F [Compound 106, 9-(1,1-dideuterio-2,2,2-trifluoro-ethoxy)-4-[[(2S)-1,4-dioxan-2-yl]methoxy]-1-methyl-6,7-dihydrobenzo[a]quinolizin-2-one]
100 to 500 nM | Cc1c2n(c(OCC3CCO3)cc1=O)CCc1cc(OCc3ccccc3)ccc1-2 (stereo not shown) [Compound 107, 9-benzyloxy-1-methyl-4-(oxetan-2-ylmethoxy)-6,7-dihydrobenzo[a]quinolizin-2-one]
0.01 to 100 nM | Cc1c2n(c(OC[C@@H]3CCCO3)cc1=O)CCc1cc(OCc3ccccc3)ccc1-2 [Compound 108, 9-benzyloxy-1-methyl-4-[[(2S)-tetrahydrofuran-2-yl]methoxy]-6,7-dihydrobenzo[a]quinolizin-2-one]
0.01 to 100 nM | Cc1c2n(c(OCC3CCCCO3)cc1=O)CCc1cc(OCc3ccccc3)ccc1-2 (stereo not shown) [Compound 109, 9-benzyloxy-1-methyl-4-(tetrahydropyran-2-ylmethoxy)-6,7-dihydrobenzo[a]quinolizin-2-one]
0.01 to 100 nM | COC1CN(c2ccc3c(c2)CCn2c(OC[C@@H]4COCCO4)cc(=O)c(C)c2-3)C1 [Compound 110, 4-[[(2S)-1,4-dioxan-2-yl]methoxy]-9-(3-methoxyazetidin-1-yl)-1-methyl-6,7-dihydrobenzo[a]quinolizin-2-one]
0.01 to 100 nM | COC1CCN(c2ccc3c(c2)CCn2c(OC[C@@H]4COCCO4)cc(=O)c(C)c2-3)CC1 [Compound 111, 4-[[(2S)-1,4-dioxan-2-yl]methoxy]-9-(4-methoxy-1-piperidyl)-1-methyl-6,7-dihydrobenzo[a]quinolizin-2-one]
0.01 to 100 nM | Cc1c2n(c(OC[C@@H]3COCCO3)cc1=O)CCc1cc(N3CCC(C(=O)N4CCCCC4)CC3)ccc1-2 [Compound 112, 4-[[(2S)-1,4-dioxan-2-yl]methoxy]-1-methyl-9-[4-(piperidine-1-carbonyl)-1-piperidyl]-6,7-dihydrobenzo[a]quinolizin-2-one]
0.01 to 100 nM | Cc1c2n(c(OC[C@@H]3COCCO3)cc1=O)CCc1cc(N3CCC(c4ccccc4)CC3)ccc1-2 [Compound 113, 4-[[(2S)-1,4-dioxan-2-yl]methoxy]-1-methyl-9-(4-phenyl-1-piperidyl)-6,7-dihydrobenzo[a]quinolizin-2-one]
0.01 to 100 nM | Cc1c2n(c(OC[C@@H]3COCCO3)cc1=O)CCc1cc(N3CCCCC3)ccc1-2 [Compound 115, 4-[[(2S)-1,4-dioxan-2-yl]methoxy]-1-methyl-9-(1-piperidyl)-6,7-dihydrobenzo[a]quinolizin-2-one]
0.01 to 100 nM | Cc1c2n(c(OC[C@@H]3COCCO3)cc1=O)CCc1cc(N3CCCC(C)C3)ccc1-2 (stereo partly drawn) [Compound 116, 4-[[(2S)-1,4-dioxan-2-yl]methoxy]-1-methyl-9-(3-methyl-1-piperidyl)-6,7-dihydrobenzo[a]quinolizin-2-one]
0.01 to 100 nM | Cc1c2n(c(OC[C@@H]3COCCO3)cc1=O)CCc1cc(N3CCC(c4ccc(F)cc4)CC3)ccc1-2 [Compound 117, 4-[[(2S)-1,4-dioxan-2-yl]methoxy]-9-[4-(4-fluorophenyl)-1-piperidyl]-1-methyl-6,7-dihydrobenzo[a]quinolizin-2-one]
